How the values were obtained:
Test in all cases: relative viability (nuclei count vs DMSO), 5 days (fraction); higher = more cells survive
KN-93 + Foretinib = compound: CN(C/C=C/C1=CC=C(C=C1)Cl)CC2=CC=CC=C2N(CCO)S(=O)(=O)C3=CC=C(C=C3)OC [KN-93] + COc1cc2c(Oc3ccc(NC(=O)C4(C(=O)Nc5ccc(F)cc5)CC4)cc3F)ccnc2cc1OCCCN1CCOCC1 [Foretinib] (partner 0.25 µM)
Procedure, shortened: (§1)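 Dosing by pin tool came one day after lung cancer cell lines were seeded in 1536-well plates, using either one drug or a fixed anchor-drug dose plus five library-drug doses (not always all listed) in √10 steps. After 5 days, nuclei were counted on 4× images. Relative viability is treated-well nuclei count divided by vehicle-well nuclei count, and values are medians of duplicate plates.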

KN-93 + Alpelisib = compound: CN(C/C=C/C1=CC=C(C=C1)Cl)CC2=CC=CC=C2N(CCO)S(=O)(=O)C3=CC=C(C=C3)OC [KN-93] + Cc1nc(NC(=O)N2CCC[C@H]2C(N)=O)sc1-c1ccnc(C(C)(C)C(F)(F)F)c1 [Alpelisib] (partner 2 µM)
Procedure, shortened: as §1

KN-93 + Phenformin = compound: CN(C/C=C/C1=CC=C(C=C1)Cl)CC2=CC=CC=C2N(CCO)S(=O)(=O)C3=CC=C(C=C3)OC [KN-93] + N=C(N)NC(=N)NCCc1ccccc1 [Phenformin] (partner 250 µM)
Procedure, shortened: as §1

KN-93 + OSI-027 = compound: CN(C/C=C/C1=CC=C(C=C1)Cl)CC2=CC=CC=C2N(CCO)S(=O)(=O)C3=CC=C(C=C3)OC [KN-93] + COc1cccc2cc(-c3nc([C@H]4CC[C@H](C(=O)O)CC4)n4ncnc(N)c34)[nH]c12 [OSI-027] (partner 0.5 µM)
Procedure, shortened: as §1

KN-93 + Crizotinib = compound: CN(C/C=C/C1=CC=C(C=C1)Cl)CC2=CC=CC=C2N(CCO)S(=O)(=O)C3=CC=C(C=C3)OC [KN-93] + C[C@@H](Oc1cc(-c2cnn(C3CCNCC3)c2)cnc1N)c1c(Cl)ccc(F)c1Cl [Crizotinib] (partner 1 µM)
Procedure, shortened: as §1

Row | Cell Line | relative viability (KN-93 + Foretinib; first compound 0.08 µM) | relative viability (KN-93 + Foretinib; first compound 0.253 µM) | relative viability (KN-93 + Foretinib; first compound 2.53 µM) | relative viability (KN-93 + Foretinib; first compound 8 µM) | relative viability (KN-93 + Alpelisib; first compound 0.08 µM) | relative viability (KN-93 + Alpelisib; first compound 0.253 µM) | relative viability (KN-93 + Alpelisib; first compound 2.53 µM) | relative viability (KN-93 + Alpelisib; first compound 8 µM) | relative viability (KN-93 + Phenformin; first compound 0.08 µM) | relative viability (KN-93 + Phenformin; first compound 0.253 µM) | relative viability (KN-93 + Phenformin; first compound 2.53 µM) | relative viability (KN-93 + Phenformin; first compound 8 µM) | relative viability (KN-93 + OSI-027; first compound 0.08 µM) | relative viability (KN-93 + OSI-027; first compound 0.253 µM) | relative viability (KN-93 + OSI-027; first compound 2.53 µM) | relative viability (KN-93 + OSI-027; first compound 8 µM) | relative viability (KN-93 + Crizotinib; first compound 0.08 µM) | relative viability (KN-93 + Crizotinib; first compound 0.253 µM) | relative viability (KN-93 + Crizotinib; first compound 2.53 µM) | relative viability (KN-93 + Crizotinib; first compound 8 µM)
1 | LXF-289 | 0.982 | 1.01 | 0.944 | 0.805 | 0.974 | 1.11 | 1.11 | 0.705 | 0.515 | 0.568 | 0.597 | 0.504 | 0.875 | 0.967 | 0.873 | 0.634 | 0.782 | 0.913 | 0.825 | 0.532
2 | NCI-H23 | 0.935 | 1.13 | 1.1 | 0.666 | 0.592 | 0.702 | 1.01 | 0.596 | 0.705 | 0.889 | 0.88 | 0.609 | 0.566 | 0.544 | 0.662 | 0.344 | 0.446 | 0.54 | 0.574 | 0.534
3 | NCI-H322M | 0.959 | 0.933 | 0.984 | 0.762 | 0.873 | 1.06 | 0.836 | 0.686 | 0.753 | 0.746 | 0.838 | 0.604 | 0.535 | 0.577 | 0.539 | 0.411 | 1.08 | 0.982 | 0.896 | 0.905
4 | NCI-H358 | 0.519 | 0.733 | 0.64 | 0.335 | 0.843 | 0.992 | 0.72 | 0.319 | 0.32 | 0.444 | 0.384 | 0.251 | 0.74 | 0.653 | 0.831 | 0.421 | 0.565 | 0.568 | 0.519 | 0.426
5 | NCI-H441 | 1.08 | 1.23 | 1.2 | 0.73 |  | 1.18 | 0.772 | 0.341 | 0.828 | 1.06 | 0.921 | 0.779 | 0.603 | 0.672 | 0.623 | 0.479 | 0.716 | 0.879 | 0.76 | 0.565
6 | NCI-H460 | 0.715 | 1.06 | 1.02 | 0.591 | 0.47 | 0.649 | 0.42 | 0.203 | 0.299 | 0.565 | 0.552 | 0.396 | 0.863 | 0.825 | 0.603 | 0.223 | 0.387 | 0.985 | 1.33 | 0.449
7 | NCI-H520 | 0.885 | 0.952 | 0.768 | 0.711 |  | 1.38 | 1.05 | 0.763 | 0.732 | 0.769 | 0.842 | 0.451 | 0.287 | 0.289 | 0.279 | 0.205 |  | 1.08 | 0.759 | 0.586
8 | NCI-H596 | 0.862 | 0.989 | 0.886 | 0.532 | 0.442 | 0.459 | 0.51 | 0.334 | 0.728 | 0.95 | 0.69 | 0.45 | 0.769 | 0.726 | 0.755 | 0.252 | 0.906 | 1.09 | 1.03 | 0.691
9 | NCI-H647 | 1.11 | 1.37 | 1.54 | 1.07 | 1.39 | 1.52 | 1.32 | 0.717 | 0.696 | 0.552 | 0.643 | 0.484 | 0.695 | 0.643 | 0.856 | 0.533 | 0.916 | 1.48 | 1.13 | 0.511
10 | NCI-H650 | 1.11 | 0.972 | 0.968 | 0.705 | 1.04 | 1.34 | 1.04 | 0.65 | 0.481 | 0.47 | 0.449 | 0.414 | 0.502 | 0.536 | 0.576 | 0.443 | 0.866 | 0.735 | 0.772 | 0.488
11 | NCI-H661 | 0.942 | 1.13 | 0.976 | 0.481 | 0.578 | 0.597 | 0.796 | 0.161 | 0.307 | 0.273 | 0.26 | 0.294 | 0.693 | 0.741 | 0.606 | 0.273 | 0.855 | 0.875 | 0.988 | 0.761
12 | NCI-H727 | 1.04 | 0.945 | 0.863 | 0.553 | 0.466 | 0.525 | 0.563 | 0.378 | 0.576 | 0.601 | 0.814 | 0.533 | 0.644 | 0.512 | 0.486 | 0.337 | 0.667 | 1 | 0.637 | 0.429
13 | NCI-H838 | 0.946 | 0.977 | 1.13 | 0.905 | 0.989 | 0.911 | 1.09 | 0.887 | 0.648 | 0.565 | 0.596 | 0.547 | 0.443 | 0.328 | 0.445 | 0.41 | 0.764 | 0.86 | 0.94 | 0.7
14 | NCI-H1355 | 0.879 | 0.984 | 1.03 | 0.868 | 0.731 | 0.719 | 0.946 | 0.697 | 0.497 | 0.456 | 0.438 | 0.427 | 0.405 | 0.295 | 0.41 | 0.246 | 0.915 | 1.11 | 1.15 | 0.837
15 | NCI-H1437 | 1.17 | 1.26 | 1.13 | 0.64 | 0.876 | 1.25 | 0.88 | 0.613 | 0.396 | 0.292 | 0.352 | 0.31 | 0.885 | 0.984 | 0.852 | 0.651 | 0.851 | 1.27 | 0.894 | 0.47
16 | NCI-H1563 | 0.918 | 0.878 | 0.858 | 0.659 | 0.922 | 0.947 | 0.906 | 0.758 | 0.706 | 0.633 | 0.647 | 0.626 | 0.841 | 0.789 | 0.745 | 0.566 | 0.875 | 0.845 | 0.643 | 0.601
17 | NCI-H1651 | 0.669 | 0.845 | 0.886 | 0.582 | 1.05 | 1.23 | 1.3 | 0.624 | 0.369 | 0.44 | 0.369 | 0.321 | 0.588 | 0.73 | 0.749 | 0.423 | 0.846 | 0.959 | 0.9 | 0.732
18 | NCI-H1666 | 0.85 | 0.996 | 1.01 | 0.959 | 0.974 | 0.895 | 1.22 | 0.674 | 0.611 | 0.772 | 0.656 | 0.576 | 0.882 | 0.834 | 0.993 | 0.857 | 0.939 | 0.837 | 0.998 | 0.626
19 | NCI-H1734 | 0.72 | 0.847 | 0.734 | 0.585 | 0.718 | 0.712 | 0.746 | 0.533 | 0.363 | 0.446 | 0.381 | 0.411 | 0.53 | 0.574 | 0.605 | 0.404 | 0.646 | 0.752 | 0.74 | 0.421
20 | NCI-H1755 | 0.993 | 0.924 | 0.921 | 0.794 | 0.718 | 1.13 | 1.2 | 0.819 | 0.699 | 0.608 | 0.674 | 0.605 | 0.832 | 0.727 | 0.776 | 0.559 | 0.86 | 1.14 | 0.903 | 0.566
21 | NCI-H1915 | 0.952 | 1.23 | 1.25 | 0.912 | 1.06 | 1.17 | 1.1 | 0.95 | 0.382 | 0.421 | 0.408 | 0.359 | 0.571 | 0.718 | 0.653 | 0.472 | 0.705 | 1.35 | 0.953 | 0.859
22 | NCI-H1944 | 0.831 | 0.835 | 0.709 | 0.557 | 0.832 | 0.761 | 0.931 | 0.754 | 0.172 | 0.216 | 0.218 | 0.195 | 0.403 | 0.376 | 0.383 | 0.31 | 1.24 | 1.24 | 1.18 | 0.953
23 | NCI-H1975 | 0.848 | 1.11 | 0.972 | 0.475 | 0.607 | 0.717 | 0.556 | 0.284 | 0.423 | 0.463 | 0.456 | 0.4 | 0.674 | 0.731 | 0.677 | 0.417 | 0.721 | 1.2 | 0.875 | 0.581
24 | NCI-H1993 | 0.774 | 0.78 | 0.808 | 0.672 | 0.648 | 0.574 | 0.71 | 0.59 | 0.619 | 0.519 | 0.512 | 0.574 | 0.544 | 0.607 | 0.565 | 0.573 | 0.968 | 0.814 | 0.76 | 0.727
25 | NCI-H2009 | 1.2 | 1.37 | 1.29 | 0.914 | 1.2 | 1.3 | 1.29 | 0.887 | 0.426 | 0.557 | 0.492 | 0.317 | 0.608 | 0.629 | 0.535 | 0.248 | 1.18 | 1.1 | 1.04 | 0.474
26 | NCI-H2023 | 0.935 |  | 0.981 | 0.627 | 0.562 | 0.46 | 0.689 | 0.517 | 0.365 | 0.466 | 0.496 | 0.247 | 0.361 | 0.359 | 0.345 | 0.211 | 0.795 | 0.855 | 0.745 | 0.439
27 | NCI-H2085 | 1 | 0.994 | 1.05 | 0.664 | 0.993 | 1.07 | 0.985 | 0.749 | 0.698 | 0.796 | 0.815 | 0.655 | 0.733 | 0.639 | 0.806 | 0.597 | 0.815 | 1.17 | 0.921 | 0.565

Reference: the supplement of paper PMC10307832
